In one data set the test system is HIV-1 5i3res strain. Briefly: Anti-HIV activity against selected 5i3res strain in MT-4 cells. To be noted: for EC50: Human immunodeficiency virus 1, MT4, read-out: EC50 5i3res strain. It counts as cell-based.
A further data set relates to HIV-1 5e2res strain. Nature of the data set: Anti-HIV activity against selected 5e2res strain in MT-4 cells. The following applies: for RF (resistance fold), 5e2res strain: EC50(mutant strain)/EC50(IIIB strain); for EC50: Human immunodeficiency virus 1, MT4, read-out: EC50 5e2res strain. It counts as cell-based.
Another data set has as its system HIV-1 WT strain (IIIB). Briefly: Anti-HIV activity against HIV-1 IIIB in MT-4 cells. To be noted: Human immunodeficiency virus 1, IIIB, MT4, read-out: EC50 IIIB strain. It counts as cell-based.
In data set [1] the test system is HIV-1 GH9 (K101P/K103N/V108I). To be noted: cited from earlier work.
The next data set relates to HIV-1 K101P mutation. The following applies: cited from earlier work.
For the next data set, the system named is HIV-1 K103N mutation. To be noted: cited from earlier work.
The subject of data set [2] is HIV-1 p5735 (K101E/Y181V). Briefly: Anti-HIV-1 activity against NNRTI-resistant strain p5735 in TZM-bl cells. It counts as cell-based. To be noted: Human immunodeficiency virus 1, TZM-bl, read-out: EC50 p5735.
Data set [3] concerns CYP1A2, CYP2C9, CYP2C19, CYP2D6 (range over isozymes). Nature of the data set: Cytochrome P450 inhibition assay, ranges over isozymes. It counts as in vitro ADME. To be noted: human, human liver microsomes.
Data set [4] relates to HIV-1 GH9 (K101P/K103N/V108I). Nature of the data set: Anti-HIV-1 activity against triple-mutant strain GH9 in TZM-bl cells. The following applies: Human immunodeficiency virus 1, TZM-bl, read-out: EC50 GH9. The data set is classed as cell-based.
The test system of data set [5] is HIV-1 p1579 (E138G/H221Y/F227L/M230L). Briefly: Anti-HIV-1 activity against NNRTI-resistant strain p1579 in TZM-bl cells. The data set is classed as cell-based. The following applies: Human immunodeficiency virus 1, TZM-bl, read-out: EC50 p1579.
Data set [6] concerns HIV-1 p5375 (A98G/K101E/E138K/Y181C). Briefly: Anti-HIV-1 activity against NNRTI-resistant strain p5375 in TZM-bl cells. The data set is classed as cell-based. To be noted: Human immunodeficiency virus 1, TZM-bl, read-out: EC50 p5375.
The test system of data set [7] is HIV-1 p1833 (A98G/K101E/Y181C/G190A). Nature of the data set: Anti-HIV-1 activity against NNRTI-resistant strain p1833 in TZM-bl cells. It counts as cell-based. The following applies: Human immunodeficiency virus 1, TZM-bl, read-out: EC50 p1833.
Data set [8] can be described thus: Cytotoxicity in TZM-bl cells. It counts as cell-based. To be noted: human.

In general, EC50 refers to the midpoint of the concentration-response curve. With `Cc1cn([C@H]2C[C@H](N=[N+]=[N-])[C@@H](CO)O2)c(=O)[nH]c1=O` [AZT, zidovudine], the “RF (resistance fold), 5i3res strain” value with HIV-1 5i3res strain (EC50(mutant strain)/EC50(IIIB strain)) is 1.2. For the same compound, the concentration for a half-maximal effect (EC50) worked out at 48.9 nM in the data set with HIV-1 5i3res strain, 51.9 nM in the data set with HIV-1 5e2res strain and 40.9 nM in the data set on HIV-1 WT strain (IIIB). Further, the “RF (resistance fold), 5e2res strain” value in the data set with HIV-1 5e2res strain stood at 1.3.

As for `O=C1Nc2ccc(Cl)cc2[C@@](C#CC2CC2)(C(F)(F)F)O1` [EFV, efavirenz], in [1], the “resistance conferred by triple-mutant strain GH9” value is given as “up to 12,931 fold”. For the same compound, in the data set with HIV-1 K101P mutation, the “reduction in efficacy by K101P mutation alone” value (from here on “reduction in efficacy”) is listed as greater than 50 fold. In addition, the “reduction in susceptibility by K103N mutation” value with HIV-1 K103N mutation was “about 20 fold”.

In general, IC50 refers to the point on the concentration scale where inhibition reaches its midpoint. Read a high IC50 as weaker potency in that assay. As for `Cc1cc(C#N)cc(C)c1Oc1nc(Nc2ccc(C#N)cc2)nc(N)c1Br` [ETR, etravirine], the EC50 in data set [2] turned out to be 14.3 ± 5.07 nM; in data set [4], 104 ± 38.2 nM; in data set [5], 74.9 ± 18.9 nM; in data set [6], 37.6 ± 8.06 nM; in data set [7], 11.1 ± 2.76 nM. The IC50 at 10 min in data set [3] is 277 to 12000 nM. Further, the “reduction in efficacy” value in the data set with HIV-1 K101P mutation is on record as “about five-fold”.

Regarding `Cc1ccnc2c1NC(=O)c1cccnc1N2C1CC1` [NVP, nevirapine], the “EC50 5i3res strain” value in the data set on HIV-1 5i3res strain (MT-4 cells) was “completely inactive”. The “EC50 5e2res strain” value in the data set with HIV-1 5e2res strain (MT-4 cells) was “completely inactive”. Besides, the “reduction in susceptibility by K103N mutation” value with HIV-1 K103N mutation was roughly 50 fold.

One may read the CC50 as the concentration that lowers cell viability or growth by half. A high value points to better tolerance by the cells. Turning to `Cc1cc(/C=C/C#N)cc(C)c1Nc1ccnc(Nc2ccc(C#N)cc2)n1` [RPV, rilpivirine], the EC50 in data set [2] worked out at 151 ± 32 nM; in data set [4] it was 1710 ± 339 nM; in data set [5], 1.26 ± 0.38 nM; in the data set on HIV-1 5i3res strain, 74.6 nM; with HIV-1 5e2res strain, 16.6 nM; in data set [6], 1.07 ± 0.3 nM. Moreover, the “resistance conferred by triple-mutant strain GH9” value in data set [1] was greater than 162 fold. The same compound yielded a half-maximal cytotoxic concentration (CC50) at 4 days in [8] greater than 54500 nM. In addition, the “reduction in efficacy” value in the data set with HIV-1 K101P mutation is reported as “up to 243 fold”.

Turning to `Nc1ccn([C@H]2CC[C@@H](CO)O2)c(=O)n1` [ddC, zalcitabine], in the data set with HIV-1 5e2res strain, the “RF (resistance fold), 5e2res strain” value is 0.8 and the 50% effective concentration (EC50) was found to be 690 nM. Further, the half-maximal effective concentration (EC50) in the data set with HIV-1 WT strain (IIIB) came out at 890 nM.

With `O=c1[nH]cnc2c1ncn2[C@H]1CC[C@@H](CO)O1` [ddI, didanosine], the EC50 stood at 8930 nM in the data set on HIV-1 5i3res strain and 19700 nM with HIV-1 WT strain (IIIB).

(Values after publication PMC12124364 (Science Advances, 2025).)
